Assay results taken from patent US11459329B2, “Imidazopyridazine and imidazopyridine compounds and uses thereof” (Incyte Corporation, priority 2018, dated 2022).
Read-outs that look alike come from different tables or passages of the source.

Molecular target: ALK2 (aa 147-end) (Homo sapiens (Human), UniProt Q04771)
Experiment: ALK2 HTRF Assay
Type: biochemical
Experimental: The enzymatic assays were conducted in white 384-well polystyrene plates in a final volume of 8 μL. The inhibitors were serially diluted in DMSO and added to the plate wells prior to addition of the other reaction components. The assays were carried out at 25° C. in the assay buffer (50 mM HEPES, pH 7.0, 10% Glycerol, 0.01% Brij50, 10 mM MgCl2, 1 mM EGTA, 5 mM DTT, and 0.01% BSA), containing 50 nM LANCE Ultra ULight™-DNA Topoisomerase 2-alpha peptide (Perkin Elmer TRF0130), and 3 μM ATP. The final concentration of DMSO in the assay was 1% and the enzyme concentration was 0.5 nM for ALK2. […] […] IC50 determination was performed by fitting percent control activity versus the log of the inhibitor concentration using the IDBS XLFit and GraphPad Prism 5.0 software.

[1] = 3 μM ATP, 0.5 nM ALK2, 2 hr, 25° C., read-out: ALK2 IC50

ALK2 (aa 147-end), sequence (Q04771 147-509): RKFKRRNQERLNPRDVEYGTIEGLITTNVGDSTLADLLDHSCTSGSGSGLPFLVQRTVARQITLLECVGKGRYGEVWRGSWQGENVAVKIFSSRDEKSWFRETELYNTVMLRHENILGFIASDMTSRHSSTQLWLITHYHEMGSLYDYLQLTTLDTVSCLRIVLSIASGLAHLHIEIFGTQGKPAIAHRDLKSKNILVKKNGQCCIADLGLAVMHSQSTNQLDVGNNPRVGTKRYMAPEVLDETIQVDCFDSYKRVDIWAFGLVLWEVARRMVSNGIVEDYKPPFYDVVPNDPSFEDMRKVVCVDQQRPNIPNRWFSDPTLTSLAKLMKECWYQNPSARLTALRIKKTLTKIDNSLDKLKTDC

IC50 [1] | Compound | IC50
< 1 nM | Cc1nn2c(-c3ccnc4ccccc34)cnc2cc1-c1ccc(N2CCNCC2)cc1 [Example 1, 4-(6-Methyl-7-(4-(piperazin-1-yl)phenyl)imidazo[1,2-b]pyridazin-3-yl)quinoline] | 
5 to 100 nM | CCOC(=O)N1CCN(C(=O)c2nn3c(-c4ccnc5ccccc45)cnc3cc2-c2ccc(N3CCNCC3)cc2)CC1 [Example 4, Ethyl 4-(7-(4-(piperazin-1-yl)phenyl)-3-(quinolin-4-yl)imidazo[1,2-b]pyridazine-6-carbonyl)piperazine-1-carboxylate] | 
5 to 100 nM | NC(=O)c1nn2c(-c3ccnc4ccccc34)cnc2cc1-c1ccc(N2CCNCC2)cc1 [Example 5, 7-(4-(Piperazin-1-yl)phenyl)-3-(quinolin-4-yl)imidazo[1,2-b]pyridazine-6-carboxamide] | 
1 to 5 nM | CNC(=O)c1ccc2c(-c3cnc4cc(-c5ccc(N6CCNCC6)cc5)c(C)nn34)ccnc2c1 [Example 16, N-methyl-4-(6-methyl-7-(4-(piperazin-1-yl)phenyl)imidazo[1,2-b]pyridazin-3-yl)quinoline-7-carboxamide] | 
> 100 nM | Cc1nn2c(-c3ccnc4cc(C(=O)N5CCN(C)CC5)ccc34)cnc2cc1-c1ccc(N2CCNCC2)cc1 [Example 17, (4-(6-methyl-7-(4-(piperazin-1-yl)phenyl)imidazo[1,2-b]pyridazin-3-yl)quinolin-7-yl)(4-methylpiperazin-1-yl)methanone] | 
1 to 5 nM | Cc1nn2c(-c3ccnc4cc(-c5ccn(C)n5)ccc34)cnc2cc1-c1ccc(N2CCNCC2)cc1 [Example 18, 7-(1-methyl-1H-pyrazol-3-yl)-4-(6-methyl-7-(4-(piperazin-1-yl)phenyl)imidazo[1,2-b]pyridazin-3-yl)quinoline] | 
1 to 5 nM | Cc1nn2c(-c3ccnc4cc(-c5ccnc(CO)c5)ccc34)cnc2cc1-c1ccc(N2CCNCC2)cc1 [Example 19, (4-(4-(6-methyl-7-(4-(piperazin-1-yl)phenyl)imidazo[1,2-b]pyridazin-3-yl)quinolin-7-yl)pyridin-2-yl)methanol] | 
5 to 100 nM | Cc1nn2c(-c3ccnc4cc(N5CC6(CCOC6)C5)ccc34)cnc2cc1-c1ccc(N2CCNCC2)cc1 [Example 21, 2-(4-(6-methyl-7-(4-(piperazin-1-yl)phenyl)imidazo[1,2-b]pyridazin-3-yl)quinolin-7-yl)-6-oxa-2-azaspiro[3.4]octane] | 
< 1 nM | Cc1nn2c(-c3ccnc4cc(Nc5cccnc5)ccc34)cnc2cc1-c1ccc(N2CCNCC2)cc1 [Example 22, 4-(6-methyl-7-(4-(piperazin-1-yl)phenyl)imidazo[1,2-b]pyridazin-3-yl)-N-(pyridin-3-yl)quinolin-7-amine] | 
5 to 100 nM | CC(=O)N1CCN(c2ccc3c(-c4cnc5cc(-c6ccc(N7CCNCC7)cc6)c(C)nn45)ccnc3c2)CC1 [Example 23, 1-(4-(4-(6-methyl-7-(4-(piperazin-1-yl)phenyl)imidazo[1,2-b]pyridazin-3-yl)quinolin-7-yl)piperazin-1-yl)ethan-1-one] | 
5 to 100 nM | Cc1nn2c(-c3ccnc4cc(CN5CCOCC5)ccc34)cnc2cc1-c1ccc(N2CCNCC2)cc1 [Example 24, 4-((4-(6-methyl-7-(4-(piperazin-1-yl)phenyl)imidazo[1,2-b]pyridazin-3-yl)quinolin-7-yl)methyl)morpholine] | 
5 to 100 nM | Cc1nn2c(-c3ccnc4cc(CO)ccc34)cnc2cc1-c1ccc(N2CCNCC2)cc1 [Example 26, (4-(6-methyl-7-(4-(piperazin-1-yl)phenyl)imidazo[1,2-b]pyridazin-3-yl)quinolin-7-yl)methanol] | 
< 1 nM | Cc1nn2c(-c3ccnc4ncccc34)cnc2cc1-c1ccc(N2CCNCC2)cc1 [Example 27, 4-(6-methyl-7-(4-(piperazin-1-yl)phenyl)imidazo[1,2-b]pyridazin-3-yl)-1,8-naphthyridine] | 

Further lines, the molecule ahead of its results:

Compound | IC50 [1] | IC50
COC(=O)c1nn2c(-c3ccnc4ccccc34)cnc2cc1-c1ccc(N2CCNCC2)cc1 [Example 2, Methyl 7-(4-(piperazin-1-yl)phenyl)-3-(quinolin-4-yl)imidazo[1,2-b]pyridazine-6-carboxylate] | < 1 nM | 
C[C@]1(O)CC[C@H](NC(=O)c2nn3c(-c4ccnc5ccccc45)cnc3cc2-c2ccc(N3CCNCC3)cc2)CC1 [Example 3, N-((1R,4R)-4-Hydroxy-4-methylcyclohexyl)-7-(4-(piperazin-1-yl)phenyl)-3-(quinolin-4-yl)imidazo[1,2-b]pyridazine-6-carboxamide] | 5 to 100 nM | 
N#Cc1nn2c(-c3ccnc4ccccc34)cnc2cc1-c1ccc(N2CCNCC2)cc1 [Example 6, 7-(4-(piperazin-1-yl)phenyl)-3-(quinolin-4-yl)imidazo[1,2-b]pyridazine-6-carbonitrile] | < 1 nM | 
OCc1nn2c(-c3ccnc4ccccc34)cnc2cc1-c1ccc(N2CCNCC2)cc1 [Example 7, (7-(4-(Piperazin-1-yl)phenyl)-3-(quinolin-4-yl)imidazo[1,2-b]pyridazin-6-yl)methanol] | < 1 nM | 
COCc1nn2c(-c3ccnc4ccccc34)cnc2cc1-c1ccc(N2CCNCC2)cc1 [Example 8, 4-(6-(Methoxymethyl)-7-(4-(piperazin-1-yl)phenyl)imidazo[1,2-b]pyridazin-3-yl)quinoline] |  | 1 to 5 nM
Cc1nn2c(-c3ccnc4cc(-c5ccncc5)ccc34)cnc2cc1-c1cnn([C@H]2CC[C@H](O)CC2)c1 [Example 10, (trans)-4-(4-(6-Methyl-3-(7-(pyridin-4-yl)quinolin-4-yl)imidazo[1,2-b]pyridazin-7-yl)-1H-pyrazol-1-yl)cyclohexan-1-ol] | 1 to 5 nM | 
Cc1nn2c(-c3ccnc4cc(-c5ccncc5)ccc34)cnc2cc1-c1ccc(N2CCN(CCO)CC2)cc1 [Example 11, 2-(4-(4-(6-Methyl-3-(7-(pyridin-4-yl)quinolin-4-yl)imidazo[1,2-b]pyridazin-7-yl)phenyl)piperazin-1-yl)ethan-1-ol] | < 1 nM | 
Cc1nn2c(-c3ccnc4cc(-c5ccncc5)ccc34)cnc2cc1-c1ccc(N2CCN(C)CC2=O)cc1 [Example 12, 4-Methyl-1-(4-(6-methyl-3-(7-(pyridin-4-yl)quinolin-4-yl)imidazo[1,2-b]pyridazin-7-yl)phenyl)piperazin-2-one] | 5 to 100 nM | 
Cc1nn2c(-c3ccnc4cc(-c5ccncc5)ccc34)cnc2cc1-c1cccc(N2CCN(C)CC2)c1 [Example 13, 4-(6-Methyl-7-(3-(4-methylpiperazin-1-yl)phenyl)imidazo[1,2-b]pyridazin-3-yl)-7-(pyridin-4-yl)quinolone] | 5 to 100 nM | 
Cc1nn2c(-c3ccnc4cc(-c5ccncc5)ccc34)cnc2cc1-c1ccc(C(=O)N2CCN(C)CC2)cc1 [Example 14, (4-(6-Methyl-3-(7-(pyridin-4-yl)quinolin-4-yl)imidazo[1,2-b]pyridazin-7-yl)phenyl)(4-methylpiperazin-1-yl)methanone] | 1 to 5 nM | 
Cc1nn2c(-c3ccnc4cc(-c5ccncc5)ccc34)cnc2cc1-c1ccc(CN2CCC[C@H]2C)c(F)c1 [Example 15, (R)-4-(7-(3-fluoro-4-((2-methylpyrrolidin-1-yl)methyl)phenyl)-6-methylimidazo[1,2-b]pyridazin-3-yl)-7-(pyridin-4-yl)quinoline] | 1 to 5 nM | 
Cc1nn2c(-c3ccnc4cc(N5CCOCC5)ccc34)cnc2cc1-c1ccc(N2CCNCC2)cc1 [Example 20, 4-(4-(6-methyl-7-(4-(piperazin-1-yl)phenyl)imidazo[1,2-b]pyridazin-3-yl)quinolin-7-yl)morpholine] |  | 1 to 5 nM
Cc1nn2c(-c3ccnc4cc(C(O)c5cc(F)cc(F)c5)ccc34)cnc2cc1-c1ccc(N2CCNCC2)cc1 (centres unmarked) [Example 25, (3,5-difluorophenyl)(4-(6-methyl-7-(4-(piperazin-1-yl)phenyl)imidazo[1,2-b]pyridazin-3-yl)quinolin-7-yl)methanol] | 1 to 5 nM | 
Cc1nn2c(-c3ccc(C#N)c4ncccc34)cnc2cc1-c1ccc(N2CCNCC2)cc1 [Example 28, 5-(6-methyl-7-(4-(piperazin-1-yl)phenyl)imidazo[1,2-b]pyridazin-3-yl)quinoline-8-carbonitrile] | 5 to 100 nM | 
Cc1nn2c(-c3ccnc4c3OCCO4)cnc2cc1-c1ccc(N2CCNCC2)cc1 [Example 29, 8-(6-methyl-7-(4-(piperazin-1-yl)phenyl)imidazo[1,2-b]pyridazin-3-yl)-2,3-dihydro-[1,4]dioxino[2,3-b]pyridine] | < 1 nM | 
Cc1nn2c(-c3ccnc4cc(C#N)ccc34)cnc2cc1-c1ccc(N2CCNCC2)cc1 [Example 30, 4-(6-methyl-7-(4-(piperazin-1-yl)phenyl)imidazo[1,2-b]pyridazin-3-yl)quinoline-7-carbonitrile] |  | 5 to 100 nM
Cc1nn2c(-c3ccnc4c(C(=O)NCCO)cccc34)cnc2cc1-c1ccc(N2CCNCC2)cc1 [Example 31, N-(2-hydroxyethyl)-4-(6-methyl-7-(4-(piperazin-1-yl)phenyl)imidazo[1,2-b]pyridazin-3-yl)quinoline-8-carboxamide] | > 100 nM | 
Cc1nn2c(-c3ccnc4c3CCN4C(=O)c3ccncc3)cnc2cc1-c1cnn(C2CCOCC2)c1 [Example 32, (4-(6-methyl-7-(1-(tetrahydro-2H-pyran-4-yl)-1H-pyrazol-4-yl)imidazo[1,2-b]pyridazin-3-yl)-2,3-dihydro-1H-pyrrolo[2,3-b]pyridin-1-yl)(pyridin-4-yl)methanone] | 5 to 100 nM | 
CC(=O)N1C[C@@H]2C[C@H]1CN2c1ccc2c(-c3cnc4cc(-c5cnn([C@H]6CC[C@H](O)CC6)c5)c(C)nn34)ccnc2c1 [Example 33, 1-((1S,4S)-5-(4-(7-(1-((1R,4R)-4-hydroxycyclohexyl)-1H-pyrazol-4-yl)-6-methylimidazo[1,2-b]pyridazin-3-yl)quinolin-7-yl)-2,5-diazabicyclo[2.2.1]heptan-2-yl)ethan-1-one] | 5 to 100 nM | 
